Measured values reported in patent publication US20190241822A1, “COMPOSITION FOR REMOVING IRON SULFIDE” (KURARAY CO., LTD., priority 2016, published 2019).
Where two headings read alike, the source gives them in different places.

How the values were obtained:
[1] = assay type: physicochemical; details: 50° C., nitrogen atmosphere; for content ratio, 2 hours elapsed / content ratio, 4 hours elapsed / content ratio, 6 hours elapsed / content ratio, 10 hours elapsed: GC with internal standard; for content ratio, 0 hour: content immediately after temperature rise defined as 100%
Description: 50 mL of each of SAL and acrolein was charged in three-necked flask, and the contents were subjected to temperature rise to 50° C. in a nitrogen atmosphere. On the occasion when the content of each of SAL and acrolein immediately after the temperature rise was defined as 100%, a change of the content ratio was observed according to the calibration curve method by means of gas chromatography with an internal standard.
Analysis instrument: GC-14A (available from Shimadzu Corporation) Detector: FID (hydrogen flame ionization detector)
Column used: DB-1701 (length: 50 m, film thickness: 1 pn, inner diameter: 0.32 mm) (available from Agilent Technologies)
Analysis conditions: Injection temperature: 250° C., detection temperature: 250° C.
Temperature rise conditions: 70° C.→(temperature rise at 5° C./min)→250° C.
Internal standard substance: Diglyme (diethylene glycol dimethyl ether)

[2] = assay type: physicochemical; details: pH 1.7
Description: Each of SAL and acrolein was dissolved in 0.5 mol/L of phosphoric acid buffer solutions having a pH different from each other, thereby preparing 0.1 wt % solutions. 50 mL of each of the solutions was charged in a sample vial in a nitrogen atmosphere and stored at 23±2° C. On the occasion when the content of each of SAL and acrolein at the time of preparation was defined as 100%, a change of the content ratio was observed according to the absolute calibration curve by means of high-performance liquid chromatography analysis.
pH 1.7: 4.9 g of 75% phosphoric acid and 7.8 g of sodium dihydrogen phosphate dihydrate were dissolved in 200 mL of distilled water.
pH 6.2: 7.8 g of sodium dihydrogen phosphate dihydrate and 7.1 g of disodium hydrogen phosphate were dissolved in 200 mL of distilled water.
pH 8.1: 0.3 g of sodium dihydrogen phosphate dihydrate and 13.9 g of disodium hydrogen phosphate were dissolved in 200 mL of distilled water.
Analysis instrument: Prominence System (available from Shimadzu Corporation)
Column used: Cadenza CD-C18 (length: […], inner diameter: 4.6 mm)
Developing solution: H2O/MeOH=45/55 (volume ratio), H3PO4=1 mol/L

[3] = Removal test of iron sulfide; details: for time elapsed until iron sulfide was dissolved and the reaction solution became colorless transparent: 1.5 mmol aldehyde, 0.5 mmol iron sulfide in 500 mL water, 50° C., 500 rpm
[4] = upper respiratory tract; cited from earlier work
Rat = details: cited from earlier work

CC(C)=CC=O [SAL, 3-methyl-2-butenal]
content ratio, 2 hours elapsed [1]: 100.0%
content ratio, 4 hours elapsed [1]: 100.0%
content ratio, 6 hours elapsed [1]: 100.0%
content ratio, 10 hours elapsed [1]: 99.9%
content ratio, 0 hour [1]: 100.0%
pH stability as compared with acrolein [2]: extremely high in the pH stability as compared with acrolein
time elapsed until iron sulfide was dissolved and the reaction solution became colorless transparent [3]: 4 h
iron sulfide removal ability ([3]; compared with acrolein): equivalent to acrolein
GHS Classification (under Permissible Exposure Limit) [4]: GHS Classification; Section 1 (upper
Acute toxicity, Rat LD50 (Rat; rat, in vivo): Rat LD50: 690 mg/kg

C=CC=O [Acrolein, acrolein, reference compound]
content ratio, 2 hours elapsed [1]: 99.5%
content ratio, 4 hours elapsed [1]: 98.3%
content ratio, 6 hours elapsed [1]: 98.1%
content ratio, 10 hours elapsed [1]: 96.6%
content ratio, 0 hour [1]: 100.0%
ratio lost after elapsing 10 hours ([1]; acrolein contained hydroquinone as a stabilizer): 3.4%
time elapsed until iron sulfide was dissolved and the reaction solution became colorless transparent [3]: 4 h
Acute toxicity, Rat LD50 (Rat; Rat): Rat LD50: 42 mg/kg

CC(C)=CCCC(C)=CC=O [Citral, 3,7-dimethyl-2,6-octadienal]
time elapsed until iron sulfide was dissolved and the reaction solution became colorless transparent [3]: 7 h
